Changes are numbered by the printed parent chain.
What was measured:
Assay in all cases: KINOMEscan kinase binding assay (Eurofins/DiscoveRx), % Ctrl
Details in all cases: 1 μM
kinases [1] = molecular target: T1, kinases (Homo sapiens, UniProt P36888, D835Y)
T1 construct: purchased Eurofins/DiscoveRx; host or cells: E. coli BL21-derived host (T7 phage display) for most kinases; HEK-293 for the rest
T1 sequence (P36888 27-993 D835Y): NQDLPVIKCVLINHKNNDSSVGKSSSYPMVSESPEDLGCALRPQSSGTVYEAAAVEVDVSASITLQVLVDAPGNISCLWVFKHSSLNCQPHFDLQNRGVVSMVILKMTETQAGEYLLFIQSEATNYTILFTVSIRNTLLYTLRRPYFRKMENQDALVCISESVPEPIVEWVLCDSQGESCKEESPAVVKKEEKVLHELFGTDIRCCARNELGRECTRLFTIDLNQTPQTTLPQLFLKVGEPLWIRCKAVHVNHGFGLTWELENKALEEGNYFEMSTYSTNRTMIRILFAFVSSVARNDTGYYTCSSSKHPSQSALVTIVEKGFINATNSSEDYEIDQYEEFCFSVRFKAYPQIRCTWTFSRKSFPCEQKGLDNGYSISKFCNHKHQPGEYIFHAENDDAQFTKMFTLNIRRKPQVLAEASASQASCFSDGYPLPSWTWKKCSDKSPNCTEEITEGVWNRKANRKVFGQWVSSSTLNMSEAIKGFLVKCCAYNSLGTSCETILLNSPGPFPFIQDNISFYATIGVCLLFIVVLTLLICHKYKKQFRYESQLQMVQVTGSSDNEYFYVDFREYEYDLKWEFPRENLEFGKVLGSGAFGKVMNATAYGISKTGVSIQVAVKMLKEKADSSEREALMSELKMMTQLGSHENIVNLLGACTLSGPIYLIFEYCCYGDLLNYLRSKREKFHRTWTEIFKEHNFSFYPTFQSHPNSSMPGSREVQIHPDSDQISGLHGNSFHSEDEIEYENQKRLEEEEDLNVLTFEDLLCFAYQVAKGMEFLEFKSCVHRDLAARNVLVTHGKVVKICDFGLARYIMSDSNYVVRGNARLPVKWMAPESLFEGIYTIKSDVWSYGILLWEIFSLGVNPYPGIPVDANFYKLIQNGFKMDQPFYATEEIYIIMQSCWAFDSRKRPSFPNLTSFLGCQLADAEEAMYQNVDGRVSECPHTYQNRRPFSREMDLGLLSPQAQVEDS
How it was run: (§1)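 Competition binding: DNA- or phage-tagged kinases (T7 phage in E. coli BL21, or HEK-293-expressed) with immobilized biotinylated ligand beads and test compound, 1 h at room temperature. Bead-bound kinase eluted and quantified by qPCR; % Ctrl = (compound − positive control)/(negative control − positive control) ×100 at a single compound concentration.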

kinases [2] = test system: kinases
How it was run: as §1

kinases [3] = molecular target: T2, kinases (Homo sapiens, UniProt P16234)
T2 construct: purchased Eurofins/DiscoveRx; host or cells: E. coli BL21-derived host (T7 phage display) for most kinases; HEK-293 for the rest
T2 sequence (P16234 24-1089): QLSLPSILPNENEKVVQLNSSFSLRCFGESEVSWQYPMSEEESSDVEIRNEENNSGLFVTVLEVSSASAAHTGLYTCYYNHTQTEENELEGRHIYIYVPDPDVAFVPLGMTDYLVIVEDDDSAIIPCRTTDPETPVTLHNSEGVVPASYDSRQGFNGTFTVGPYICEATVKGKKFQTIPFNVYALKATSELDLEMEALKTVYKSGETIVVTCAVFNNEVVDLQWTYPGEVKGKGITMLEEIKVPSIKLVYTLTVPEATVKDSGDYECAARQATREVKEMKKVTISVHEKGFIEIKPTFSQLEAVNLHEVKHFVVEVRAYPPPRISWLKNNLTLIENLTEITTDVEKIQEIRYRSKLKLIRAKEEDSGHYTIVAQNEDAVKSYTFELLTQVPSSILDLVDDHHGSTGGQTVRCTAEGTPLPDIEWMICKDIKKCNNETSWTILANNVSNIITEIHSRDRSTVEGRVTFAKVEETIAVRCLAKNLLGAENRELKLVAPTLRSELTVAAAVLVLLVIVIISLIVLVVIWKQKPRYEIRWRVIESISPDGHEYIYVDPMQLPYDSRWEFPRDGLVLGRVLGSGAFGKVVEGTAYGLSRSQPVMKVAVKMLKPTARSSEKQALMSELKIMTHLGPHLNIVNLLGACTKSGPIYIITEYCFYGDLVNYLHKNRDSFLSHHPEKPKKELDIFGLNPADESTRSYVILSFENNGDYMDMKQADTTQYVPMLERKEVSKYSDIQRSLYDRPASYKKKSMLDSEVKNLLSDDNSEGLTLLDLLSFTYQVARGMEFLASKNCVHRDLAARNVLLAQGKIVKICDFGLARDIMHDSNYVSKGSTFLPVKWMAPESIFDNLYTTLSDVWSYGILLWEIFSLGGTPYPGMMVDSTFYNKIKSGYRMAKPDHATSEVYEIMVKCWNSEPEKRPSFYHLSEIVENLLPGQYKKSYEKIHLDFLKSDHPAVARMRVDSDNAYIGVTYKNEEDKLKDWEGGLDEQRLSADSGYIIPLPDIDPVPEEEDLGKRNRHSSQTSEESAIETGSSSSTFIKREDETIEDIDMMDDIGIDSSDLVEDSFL
How it was run: as §1

kinases [4] = molecular target: T3, kinases (Homo sapiens, UniProt P00533)
T3 construct: purchased Eurofins/DiscoveRx; host or cells: E. coli BL21-derived host (T7 phage display) for most kinases; HEK-293 for the rest
T3 sequence (P00533 25-1210): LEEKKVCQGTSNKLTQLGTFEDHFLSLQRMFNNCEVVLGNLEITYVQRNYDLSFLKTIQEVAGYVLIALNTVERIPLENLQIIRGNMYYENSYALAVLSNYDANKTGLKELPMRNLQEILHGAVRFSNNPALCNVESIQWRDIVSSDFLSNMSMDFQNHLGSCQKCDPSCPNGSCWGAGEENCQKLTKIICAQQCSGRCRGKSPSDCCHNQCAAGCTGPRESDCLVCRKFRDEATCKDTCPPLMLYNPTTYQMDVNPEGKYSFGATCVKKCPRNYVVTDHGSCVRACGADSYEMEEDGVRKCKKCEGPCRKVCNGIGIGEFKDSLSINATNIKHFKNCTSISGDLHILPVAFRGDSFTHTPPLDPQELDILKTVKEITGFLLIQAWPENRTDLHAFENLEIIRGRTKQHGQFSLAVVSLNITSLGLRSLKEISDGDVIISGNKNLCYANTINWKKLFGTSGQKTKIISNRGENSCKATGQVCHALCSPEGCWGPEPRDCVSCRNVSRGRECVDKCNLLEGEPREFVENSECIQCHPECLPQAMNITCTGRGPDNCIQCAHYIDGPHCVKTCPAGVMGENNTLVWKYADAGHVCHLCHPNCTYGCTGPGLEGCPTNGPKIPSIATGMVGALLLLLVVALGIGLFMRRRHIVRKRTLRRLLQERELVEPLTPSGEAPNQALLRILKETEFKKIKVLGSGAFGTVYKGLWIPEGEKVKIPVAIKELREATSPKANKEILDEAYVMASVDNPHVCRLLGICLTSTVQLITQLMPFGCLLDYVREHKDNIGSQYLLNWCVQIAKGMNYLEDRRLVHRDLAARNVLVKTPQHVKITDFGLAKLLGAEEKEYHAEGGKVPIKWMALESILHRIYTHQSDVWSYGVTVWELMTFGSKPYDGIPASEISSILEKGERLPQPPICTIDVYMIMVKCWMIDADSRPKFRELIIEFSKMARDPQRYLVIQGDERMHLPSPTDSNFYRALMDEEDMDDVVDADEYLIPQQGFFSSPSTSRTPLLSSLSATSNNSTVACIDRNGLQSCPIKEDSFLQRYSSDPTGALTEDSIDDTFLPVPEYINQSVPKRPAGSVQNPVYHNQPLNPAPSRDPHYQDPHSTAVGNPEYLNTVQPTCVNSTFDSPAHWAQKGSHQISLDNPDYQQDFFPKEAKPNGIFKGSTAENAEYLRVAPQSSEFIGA
How it was run: as §1

kinases [5] = molecular target: T4, kinases (Homo sapiens, UniProt P36888, D835H)
T4 construct: purchased Eurofins/DiscoveRx; host or cells: E. coli BL21-derived host (T7 phage display) for most kinases; HEK-293 for the rest
T4 sequence (P36888 27-993 D835H): T1 sequence (P36888 27-993 D835Y) with Y809H
How it was run: as §1

[6] = target EGFR(L747-E749del, A750P)
[7] = target EGFR(L747-S752del, P753S)
[8] = target EGFR(L747-T751del, Sins)

% Ctrl, FLT3(D835Y) (kinases [1]; FLT3(D835Y)) [% Ctrl]	% Ctrl, EGFR(L747-E749del, A750P) (kinases [2]; EGFR(L747-E749del, A750P)) [% Ctrl]	% Ctrl, EGFR(L747-S752del, P753S) (kinases [2]; EGFR(L747-S752del, P753S)) [% Ctrl]	% Ctrl, EGFR(L747-T751del, Sins) (kinases [2]; EGFR(L747-T751del, Sins)) [% Ctrl]	% Ctrl, FLT3(ITD) (kinases [2]; FLT3(ITD)) [% Ctrl]	% Ctrl, FLT3(ITD, D835V) (kinases [2]; FLT3(ITD, D835V)) [% Ctrl]	% Ctrl, FLT3(ITD, F691L) (kinases [2]; FLT3(ITD, F691L)) [% Ctrl]	% Ctrl, PDGFRA (kinases [3]; PDGFRA) [% Ctrl]	% Ctrl, EGFR (kinases [4]; EGFR) [% Ctrl]	% Ctrl, FLT3(D835H) (kinases [5]; FLT3(D835H)) [% Ctrl]	% Ctrl, FLT3(D835Y) (kinases [1]; target FLT3(D835Y)) [% Ctrl]	% Ctrl, EGFR(L747-E749del, A750P) (kinases [2]; [6]) [% Ctrl]	% Ctrl, EGFR(L747-S752del, P753S) (kinases [2]; [7]) [% Ctrl]	% Ctrl, EGFR(L747-T751del, Sins) (kinases [2]; [8]) [% Ctrl]	% Ctrl, FLT3(ITD) (kinases [2]; target FLT3(ITD)) [% Ctrl]	% Ctrl, FLT3(ITD, D835V) (kinases [2]; target FLT3(ITD, D835V)) [% Ctrl]	% Ctrl, FLT3(ITD, F691L) (kinases [2]; target FLT3(ITD, F691L)) [% Ctrl]	% Ctrl, PDGFRA (kinases [3]; target PDGFRA) [% Ctrl]	% Ctrl, EGFR (kinases [4]; target EGFR) [% Ctrl]	% Ctrl, FLT3(D835H) (kinases [5]; target FLT3(D835H)) [% Ctrl]	SMILES
94	92	100	67	91	100	100	100	95	99											Cc1cc2c([nH]1)/C=C1\C(=O)Nc3cnc(nc31)N(C)CCCOCCN(C)C2=O [Ex.71, [17a(18)Z]-2,5,12-trimethyl-6,7,9,10,11,12-hexahydro-1H-13,15-(azenometheno)dipyrrolo[3,2-f:3′,4′-i][1,4,11,13]oxatriazacyclohexadecine-4,17(5H,16H)-dione]
										0.5	19	47	45	0.9	0.3	1	30	95	0.3	CN1CCOc2cc3c(cc2Cl)NC(=O)/C3=C\c2[nH]ccc2C(=O)N(C)CC1 [Ex. 164, [16a(17)Z]-19-chloro-2,5,8-trimethyl-5,6,7,8,9,10-hexahydro-12,14-(ethanediylidene)dipyrrolo[3,2-i:3′,4′-l][1,4,7]oxadiazacyclopentadecine-4,16(1H,15H)-dione]

More lines, now with the values behind:

SMILES	% Ctrl, FLT3(D835Y) (kinases [1]; FLT3(D835Y)) [% Ctrl]	% Ctrl, EGFR(L747-E749del, A750P) (kinases [2]; EGFR(L747-E749del, A750P)) [% Ctrl]	% Ctrl, EGFR(L747-S752del, P753S) (kinases [2]; EGFR(L747-S752del, P753S)) [% Ctrl]	% Ctrl, EGFR(L747-T751del, Sins) (kinases [2]; EGFR(L747-T751del, Sins)) [% Ctrl]	% Ctrl, FLT3(ITD) (kinases [2]; FLT3(ITD)) [% Ctrl]	% Ctrl, FLT3(ITD, D835V) (kinases [2]; FLT3(ITD, D835V)) [% Ctrl]	% Ctrl, FLT3(ITD, F691L) (kinases [2]; FLT3(ITD, F691L)) [% Ctrl]	% Ctrl, PDGFRA (kinases [3]; PDGFRA) [% Ctrl]	% Ctrl, EGFR (kinases [4]; EGFR) [% Ctrl]	% Ctrl, FLT3(D835H) (kinases [5]; FLT3(D835H)) [% Ctrl]	% Ctrl, FLT3(D835Y) (kinases [1]; target FLT3(D835Y)) [% Ctrl]	% Ctrl, EGFR(L747-E749del, A750P) (kinases [2]; [6]) [% Ctrl]	% Ctrl, EGFR(L747-S752del, P753S) (kinases [2]; [7]) [% Ctrl]	% Ctrl, EGFR(L747-T751del, Sins) (kinases [2]; [8]) [% Ctrl]	% Ctrl, FLT3(ITD) (kinases [2]; target FLT3(ITD)) [% Ctrl]	% Ctrl, FLT3(ITD, D835V) (kinases [2]; target FLT3(ITD, D835V)) [% Ctrl]	% Ctrl, FLT3(ITD, F691L) (kinases [2]; target FLT3(ITD, F691L)) [% Ctrl]	% Ctrl, PDGFRA (kinases [3]; target PDGFRA) [% Ctrl]	% Ctrl, EGFR (kinases [4]; target EGFR) [% Ctrl]	% Ctrl, FLT3(D835H) (kinases [5]; target FLT3(D835H)) [% Ctrl]
Cc1cc2c([nH]1)/C=C1\C(=O)Nc3ccc(cc31)OCCOCCNC2=O [Ex. 129, [16a(17)Z]-2-methyl-6,7,9,10-tetrahydro-1H-12,14-(ethanediylidene)dipyrrolo[3,2-i:3′,4′-l][1,4,7]dioxazacyclopentadecine-4,16(5H,15H)-dione]	9.1	88	98	85	32	4.3	40	100	98	44										
Cc1cc2c([nH]1)/C=C1\C(=O)Nc3cc(Cl)c(cc31)OCCO[C@@H](C(=O)N[C@@H]1CCNC1)CN(C)C2=O [Ex. 136, [7R,16a(17)Z]-19-chloro-2,5-dimethyl-4,16-dioxo-N-[(3R)-pyrrolidin-3-yl]-4,5,6,7,9,10,15,16-octahydro-1H-12,14-(ethanediylidene)dipyrrolo[3,2-i:3′,4′-l][1,4,7]dioxazacyclopentadecine-7-carboxamide]	2.6	80	82	94	23	2.8	5.7	56	98	32										
Cc1cc2c([nH]1)/C=C1\C(=O)Nc3cnc(cc31)-c1cnn(C)c1CN(C)CCN(C)C2=O [Ex. 172, [3a(4)Z]-6,9,12,14-tetramethyl-9,10,11,12,13,14-hexahydro-17,1-(azenometheno)pyrazolo[4,3-m]dipyrrolo[3,2-f:3′,4′-i][1,4]diazacyclopentadecine-3,8(2H,5H)-dione]											0.1	62	52	43	1.1	0.3	0.3	44	36	4.2
Cc1cc2c([nH]1)/C=C1\C(=O)Nc3ccc(cc31)CN(C)C(=O)COCCNC2=O [Ex.111, [17a(18)Z]-2,11-dimethyl-6,7,11,12-tetrahydro-1H-13,15-(ethanediylidene)dipyrrolo[3,2-f:3′,4′-i][1,4,14]oxadiazacyclohexadecine-4,10,17(5H,9H,16H)-trione]	9.1	83	100	59	6.9	0.45	5.8	95	74	20										
Cc1cc2c([nH]1)/C=C1\C(=O)Nc3ccc(cc31)-c1cnn(C)c1COCCN(C)C2=O [Ex. 124, [3a(4)Z]-6,9,14-trimethyl-10,11,13,14-tetrahydro-2H-1,17-(ethanediylidene)pyrazolo[4,3-m]dipyrrolo[3,2-f:3′,4′-i][1,4]oxazacyclopentadecine-3,8(5H,9H)-dione]	5.6	25	37	57	0	0	0.65	7.9	50	0.05										
